The values below come from ChEMBL document CHEMBL1143560, “Discovery of bicycloalkyl urea melanin concentrating hormone receptor antagonists: orally efficacious antiobesity therapeutics” (J Med Chem, 2005).

As usually defined, the inhibition is how much of the control response was suppressed. The Ki is the dissociation constant of the complex between target and ligand, obtained from inhibition or displacement. In general, half-life refers to the time needed for the level to fall by half in the phase considered. Lower therefore signals rapid decline. One may read the bioavailability as the share of a dose that reaches the circulation, judged against a reference dose that is usually intravenous. Broadly, the clearance is a measure of how efficiently the substance is removed, as volume per time. Read a high clearance as efficient removal. A word on the AUC: it is concentration integrated over time. Read a high AUC as more exposure.

Some results are limits rather than exact numbers.

Series [1] concerns Mus musculus. The experiment in a line: In vivo efficacy of compound for food intake by the mice in 6 hr after peroral administration at 30 mpk expressed as percent of vehicle. Format: functional.
Series [2] has as its target Melanin-concentrating hormone receptor 1 (Mus musculus) (UniProt Q8JZL2). The series can be described thus: Ex vivo inhibition of MCH-ADO binding to Melanin concentrating hormone receptor 1 in mice (n=3) 6 hr after 30 mg/kg peroral dose. The class given is organism-based. More on the design: dose 30 mg/kg. The following applies: at 30 mg/kg.
In series [3] the target is T1, Melanin-concentrating hormone receptor 1 (Homo sapiens, UniProt Q99705). The series can be described thus: Inhibition constant for human Melanin concentrating hormone receptor 1.
T1 sequence (Q99705 whole entry): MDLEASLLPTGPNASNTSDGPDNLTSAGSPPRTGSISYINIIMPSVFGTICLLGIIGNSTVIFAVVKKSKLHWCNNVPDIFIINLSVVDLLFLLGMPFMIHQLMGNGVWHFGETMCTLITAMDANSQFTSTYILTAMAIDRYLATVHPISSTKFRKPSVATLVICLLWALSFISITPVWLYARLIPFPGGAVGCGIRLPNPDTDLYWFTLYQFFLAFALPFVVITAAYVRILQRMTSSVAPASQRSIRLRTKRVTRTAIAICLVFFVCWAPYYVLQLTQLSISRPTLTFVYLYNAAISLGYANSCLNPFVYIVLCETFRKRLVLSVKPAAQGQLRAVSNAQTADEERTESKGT
Series [4] concerns Mus musculus. The experiment in a line: In vivo efficacy of compound for food intake by the mice in 2 h after peroral administration at 30 mpk expressed as percent of vehicle. The class given is functional.
In series [5] the target is Melanin-concentrating hormone receptor 2 (Homo sapiens, UniProt Q969V1). The experiment in a line: Inhibition constant for human Melanin concentrating hormone receptor 2.
Melanin-concentrating hormone receptor 2, sequence (Q969V1 whole entry): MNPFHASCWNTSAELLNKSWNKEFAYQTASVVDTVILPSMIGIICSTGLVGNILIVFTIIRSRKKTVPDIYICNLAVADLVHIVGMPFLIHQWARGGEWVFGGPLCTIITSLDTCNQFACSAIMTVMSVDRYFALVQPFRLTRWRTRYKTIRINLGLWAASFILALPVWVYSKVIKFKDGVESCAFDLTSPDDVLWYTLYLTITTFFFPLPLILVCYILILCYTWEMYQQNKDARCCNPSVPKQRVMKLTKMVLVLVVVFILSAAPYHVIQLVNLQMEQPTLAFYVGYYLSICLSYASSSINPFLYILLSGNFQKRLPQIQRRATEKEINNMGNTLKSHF
The test system of series [6] is Mus musculus. The series can be described thus: In vivo efficacy of compound for food intake by the mice in 24 hr after peroral administration at 30 mpk expressed as percent of vehicle. The class given is functional.
The test system of series [7] is Rattus norvegicus. The experiment in a line: Suppression of Melanin concentrating hormone receptor-stimulated food intake in lean rats after 30 mg/kg dose. Format: functional.
The target in series [8] is Melanin-concentrating hormone receptor 1 (Mus musculus) (UniProt Q8JZL2). The series can be described thus: Ex vivo inhibition of MCH-ADO binding to Melanin concentrating hormone receptor 1 in mice (n=3) 24 hr r after 30 mg/kg peroral dose. Format: organism-based. More on the design: dose 30 mg/kg. The following applies: at 30 mg/kg.
Melanin-concentrating hormone receptor 1 (Mus musculus), sequence (Q8JZL2 whole entry): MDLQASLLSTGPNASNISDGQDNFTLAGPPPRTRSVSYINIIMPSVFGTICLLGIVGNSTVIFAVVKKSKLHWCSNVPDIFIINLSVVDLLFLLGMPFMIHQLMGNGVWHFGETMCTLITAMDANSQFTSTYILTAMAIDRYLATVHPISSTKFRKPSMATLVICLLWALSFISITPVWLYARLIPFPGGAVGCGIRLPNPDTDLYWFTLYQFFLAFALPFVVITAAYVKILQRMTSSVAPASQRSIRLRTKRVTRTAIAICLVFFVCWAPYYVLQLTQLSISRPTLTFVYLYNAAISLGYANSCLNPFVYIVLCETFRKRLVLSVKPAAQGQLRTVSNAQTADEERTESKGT
Series [9] in a line: Half life of compound in rats (n= 3) after intravenous administration at 10 mpk. The class given is ADME, organism-based. Particulars: rat, in vivo, 10 mg/kg.
Series [10] deals with Melanin-concentrating hormone receptor 1 (Mus musculus, UniProt Q8JZL2). The experiment in a line: Inhibition constant for mouse Melanin concentrating hormone receptor 1.
Melanin-concentrating hormone receptor 1 (Mus musculus, UniProt Q8JZL2), sequence (Q8JZL2 whole entry): as above
Series [11] in a line: Bioavailability of compound in rats (n= 3) after oral administration at 10 mpk. The following applies: rat, in vivo, 10 mg/kg. The class given is ADME, organism-based.
The target of series [12] is T1, Melanin-concentrating hormone receptor 1. The series can be described thus: Inhibition of [Ca2+] influx mediated by human Melanin concentrating hormone receptor 1 expressing cells. The class given is functional.
Series [13] can be described thus: Steady state volume distribution of compound in rats (n= 3) after oral administration at 10 mpk. Format: ADME, organism-based. Particulars: rat, in vivo, 10 mg/kg.
Series [14] is described as follows: Clearance of compound in rats (n= 3) after intravenous administration at 10 mpk. Format: ADME, organism-based. The following applies: rat, in vivo, 10 mg/kg.
Series [15] in a line: Area under concentration time curve (from 0-24 hr) for compound in rats (n= 3) after oral administration at 10 mpk. The class given is ADME. Particulars: rat, in vivo, 10 mg/kg. Further details: dose 10 mpk, time < 24 hr, route oral.
Series [16] deals with Rattus norvegicus. The experiment in a line: Oral efficacy for reduction in body weight of rats after 4 days of administration; Range is 15-20%. The class given is functional.
The test system of series [17] is Mus musculus. The series can be described thus: Reduction in milk consumption by fasted mouse after oral administration.
The test system of series [18] is Rattus norvegicus. The series can be described thus: Reduction of food intake by rats after 6 hr of administration was measured. The class given is functional.

Consider `N#Cc1ccccc1[C@]12CC[C@@H](N(CCN3CC[C@@H](O)C3)C(=O)Nc3ccc(F)c(C(F)(F)F)c3)[C@H]1C2`, for which the Efficacy turned out to be 68.2% in series [1], 65.7% in [4] and 80.8% in [6]. In addition, the inhibition in series [2] turned out to be 81%. Also, the Ki in [3] is 0.0071 µM; in series [5] it was > 3 µM.
`C[C@]1(c2cccc(C#N)c2)CC[C@H](N(CCN2CC[C@@H](O)C2)C(=O)Nc2ccc(F)c(C(F)(F)F)c2)CC1`: the Ki was 0.391 µM in series [3] and > 3 µM in series [5].
As to `CN(C)CC1CCc2cc(NC(=O)c3ccc(-c4ccc(F)cc4)cc3)ccc2C1` (configuration not stated), in series [7], the Suppression was >90%.
Regarding `CN1CCN(CCCCN(C(=O)Nc2ccc(F)c(C(F)(F)F)c2)[C@@H]2CC[C@]3(c4ccc(C#N)cc4)C[C@H]23)CC1`, the inhibition is 58% in series [8] and 99% in series [2]. The Efficacy in series [1] is 76%; in [4], 77.3%; in series [6] it was 78.1%. For the same compound, the half-life in [9] was 4 h. Also, the Ki was 0.003 µM in series [10], 0.0027 µM in [3] and > 3 µM in series [5]. Moreover, the bioavailability in series [11] was 27%. The compound further gave a Kb in series [12] of 0.0019 µM. Moreover, the “Vd(ss)” value in [13] amounted to 5.6 L/kg. This compound displayed a clearance in series [14] of 21.8 mL/min/kg. The compound further gave an AUC in [15] of 2140 ng·h/mL.
For `N#Cc1cccc(C2=CCC(N(CCN3CCCC3)C(=O)Nc3ccc(F)c(Cl)c3)CC2)c1` (configuration not stated), the Ki in [3] is 0.003 µM; in series [5] it was > 3 µM. Further, the Kb in series [12] came out at 0.009 µM.
Take `CN(C)c1nc(N[C@H]2CC[C@@H](NC(=O)c3ccc(F)c(F)c3)CC2)nc2ccccc12`: the Efficacy in series [16] turned out to be 20%.
Consider `N#Cc1cccc([C@H]2CC[C@H](N(CCN3CC[C@@H](O)C3)C(=O)Nc3ccc(F)c(C(F)(F)F)c3)CC2)c1`, for which the figures for the Ki in series [3] and in series [5] were 0.215 µM and > 3 µM, respectively.
On to `N#Cc1ccc([C@]23CC[C@@H](N(CCN4CCCC4)C(=O)Nc4cc(Cl)cc(Cl)c4)[C@H]2C3)cc1`, for which the figures for the Efficacy in series [1], in series [4] and in series [6] were 86.6%, 78.4% and 94.7%, respectively. Besides, the inhibition in series [2] amounted to 76%. The Ki in series [3] was 0.018 µM; in series [5] it was > 3 µM.
Regarding `N#Cc1cccc([C@]23CC[C@@H](N(CCN4CC[C@@H](O)C4)C(=O)Nc4ccc(F)c(Cl)c4)CC2C3)c1` (some centres not stated), the Ki in [10] was 0.0107 µM; in series [5] it was > 3 µM.
In the case of `N#Cc1cccc([C@H]2CC[C@@H](N(CCN3CC[C@@H](O)C3)C(=O)Nc3ccc(F)c(C(F)(F)F)c3)CC2)c1`, the inhibition constant (Ki) in series [3] was 2.02 µM; in series [5], > 3 µM.
As for `N#Cc1cccc(-c2ccc(N(CCN3CC[C@@H](O)C3)C(=O)Nc3ccc(F)c(C(F)(F)F)c3)cc2)c1`, the Ki in series [10] was 0.0096 µM; in [3], 0.0089 µM; in series [5] it was > 3 µM. Besides, the Kb in [12] stood at 0.002 µM.
In series [17], `CC(=O)N(C)C1CCN(c2ccc(NC(=O)N3CCC(c4ccc(Cl)cc4)CC3)cc2)C1` (configuration not stated) displayed a Reduction of 64%.
As to `N#Cc1cccc([C@@]23CC[C@@H](N(CCN4CC[C@@H](O)C4)C(=O)Nc4ccc(F)c(Cl)c4)CC2C3)c1` (some centres not stated), the Ki in series [5] is > 3 µM.
Consider `Cc1cc(N(C)CCN(C)C)nc2ccc(NC(=O)/C=C/c3ccc(OC(F)(F)F)cc3)cc12`, for which the Reduction in [18] is on record as >30%.
Take `N#Cc1cccc([C@]23CC[C@@H](N(CCN4CC[C@@H](O)C4)C(=O)Nc4ccc(F)c(Cl)c4)C[C@H]2C3)c1`: the inhibition in [8] was found to be 13%; in [2] it was 50%. Also, the Efficacy in [1] was determined as 93.6%; in [4] it was 85%; in series [6] it was 94.9%. In addition, the Ki in series [10] was 0.0059 µM; in series [5], > 3 µM.
`C[C@]1(c2cccc(C#N)c2)CC[C@@H](N(CCN2CC[C@@H](O)C2)C(=O)Nc2ccc(F)c(C(F)(F)F)c2)CC1`: the Ki in series [3] and in [5] was > 3 µM each time.
For the compound `N#Cc1cccc([C@@]23CC[C@@H](N(CCN4CC[C@@H](O)C4)C(=O)Nc4ccc(F)c(Cl)c4)C[C@@H]2C3)c1`, the inhibition in series [8] turned out to be 8%; in series [2] it was 62%. Further, the Efficacy in series [1] is reported as 99%; in series [4], 80%; in series [6], 98.6%. The values for the Ki in series [10] and in [5] were 0.0078 µM and > 3 µM, respectively.
